Assay results from paper PMC5749112 (The Journal of General Physiology, 2018).
Entries after “also recorded” stand apart in the source; their conditions may differ. Like-named read-outs stand apart in the source and are kept apart here.

Key:
[1] = biological target: T1, PnuTSw reconstituted in proteoliposomes (Shewanella woodyi, UniProt B1KPL9); assay type: biochemical; conditions: proteoliposomes loaded with 1 mM unlabeled ligand
T1 sequence (B1KPL9 1-212): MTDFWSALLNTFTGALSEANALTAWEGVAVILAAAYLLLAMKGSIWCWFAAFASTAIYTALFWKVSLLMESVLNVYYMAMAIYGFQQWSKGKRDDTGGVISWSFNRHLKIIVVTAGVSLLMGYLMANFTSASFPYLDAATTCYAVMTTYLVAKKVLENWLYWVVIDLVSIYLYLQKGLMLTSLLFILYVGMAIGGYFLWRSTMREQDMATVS

[2] = biological target: T1, PnuTSw reconstituted in proteoliposomes; assay type: biochemical; conditions: 1 mM unlabeled analogue in outside buffer, 500 nM [3H]thiamine
PnuTSw = biological target: T2, PnuTSw (Shewanella woodyi, UniProt B1KPL9); assay type: binding; conditions: for Dissociation constant Kd: WT PnuTSw in DDM, pH 8.0
T2 sequence (B1KPL9 1-212): T1 sequence (B1KPL9 1-212)

PnuTSw mutant Y77A [3] = biological target: T3, PnuTSw mutant Y77A (Shewanella woodyi, UniProt B1KPL9, Y77A); assay: biochemical
PnuTSw mutant W199A [4] = biological target: T4, PnuTSw mutant W199A (Shewanella woodyi, UniProt B1KPL9, W199A); conditions: ITC, 25°C
PnuTSw mutant D166A = conditions: ITC, 25°C
PnuTSw mutant W199A [5] = biological target: T4, PnuTSw mutant W199A; assay: biochemical
PnuTSw mutant W88A [6] = biological target: T5, PnuTSw mutant W88A (Shewanella woodyi, UniProt B1KPL9, W88A); conditions: ITC, 25°C
PnuTSw mutant Y162F [7] = biological target: T6, PnuTSw mutant Y162F (Shewanella woodyi, UniProt B1KPL9, W162F); conditions: ITC, 25°C
PnuTSw mutant W88A [8] = biological target: T5, PnuTSw mutant W88A; conditions: proteoliposomes
PnuTSw mutant Y77A [9] = biological target: T3, PnuTSw mutant Y77A; conditions: ITC, 25°C
PnuTSw mutant Y159F [10] = biological target: T7, PnuTSw mutant Y159F (Shewanella woodyi, UniProt B1KPL9, W159F); assay: biochemical
PnuTSw mutant W88A [11] = biological target: T5, PnuTSw mutant W88A; assay: biochemical
PnuTSw mutant Y188A [12] = biological target: T8, PnuTSw mutant Y188A (Shewanella woodyi, UniProt B1KPL9, Y188A); assay: biochemical
PnuTSw mutant Y159F [13] = biological target: T7, PnuTSw mutant Y159F; conditions: ITC, 25°C
PnuTSw mutant Y162F [14] = biological target: T6, PnuTSw mutant Y162F; assay: biochemical
PnuTSw mutant Y188A [15] = biological target: T8, PnuTSw mutant Y188A; conditions: ITC, 25°C

T5 sequence (B1KPL9 1-212 W88A): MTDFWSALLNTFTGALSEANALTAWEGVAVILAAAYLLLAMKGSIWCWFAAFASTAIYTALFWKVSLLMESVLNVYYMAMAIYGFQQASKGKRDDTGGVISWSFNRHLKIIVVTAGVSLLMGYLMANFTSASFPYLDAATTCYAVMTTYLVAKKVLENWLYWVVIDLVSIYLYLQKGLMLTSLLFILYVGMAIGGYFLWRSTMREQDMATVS
T4 sequence (B1KPL9 1-212 W199A): as the sequence (B1KPL9 1-212 W88A) above, with A88W, W199A counted along it
T7 sequence (B1KPL9 1-212 W159F): as the sequence (B1KPL9 1-212 W88A) above, with A88W, W159F counted along it
T3 sequence (B1KPL9 1-212 Y77A): as the sequence (B1KPL9 1-212 W88A) above, with Y77A, A88W counted along it
T6 sequence (B1KPL9 1-212 W162F): as the sequence (B1KPL9 1-212 W88A) above, with A88W, W162F counted along it
T8 sequence (B1KPL9 1-212 Y188A): as the sequence (B1KPL9 1-212 W88A) above, with A88W, Y188A counted along it

Cc1ncc(C[n+]2csc(CCOP(=O)(O)O)c2C)c(N)n1 [TMP, thiamine monophosphate] was tested, and the “Counter flow of [3H]thiamine (transported substrate or not)” value [1] was “did not trigger accumulation of the label”, the “Inhibition of [3H]thiamine uptake” value [2] was “did not inhibit transport” and the “Dissociation constant Kd” value (PnuTSw; ITC, 25°C) was “binding could not be detected; also recorded: neither TMP nor TPP could bind; also recorded: No binding”.
For Cc1ncc(C[n+]2csc(CCO[P@](=O)(O)OP(=O)(O)O)c2C)c(N)n1 [TPP, thiamine pyrophosphate], the “Counter flow of [3H]thiamine (transported substrate or not)” value [1] was “did not trigger accumulation of the label”, the “Inhibition of [3H]thiamine uptake” value [2] was “did not inhibit transport” and the “Dissociation constant Kd” value (PnuTSw; ITC, 25°C) was “binding could not be detected; also recorded: neither TMP nor TPP could bind; also recorded: No binding”.
For Cc1ncc(C[n+]2csc(CCO)c2C)c(N)n1 [Thiamine, thiamine], the Kd (PnuTSw mutant Y77A [3]) was 17 ± 2 µM, the “Dissociation constant Kd” value (PnuTSw mutant W199A [4]) was “did not affect the binding of thiamine” and the “Dissociation constant Kd” value (PnuTSw mutant D166A) was “could not be detected”. The “Dissociation constant Kd” value (PnuTSw mutant D166A; listed as thiamine) was “No binding”, the Kd (PnuTSw mutant W199A [5]) was 12 ± 1 µM and the “Dissociation constant Kd” value (PnuTSw mutant W88A [6]) was “did not affect the binding of thiamine”. The “Dissociation constant Kd” value (PnuTSw mutant Y162F [7]) was “neither of the mutations affected thiamine binding”, the “Thiamine transport activity of mutant” value (PnuTSw mutant W88A [8]) was “unable to transport thiamine” and the “Dissociation constant Kd” value (PnuTSw mutant Y77A [9]) was “did not affect the binding of thiamine”. It also gave a Kd (PnuTSw mutant Y159F [10]) of 23 ± 2 µM, a Kd (PnuTSw mutant W88A [11]) of 13 ± 2 µM and a Kd (PnuTSw mutant Y188A [12]) of 21 ± 2 µM. The “Dissociation constant Kd” value (PnuTSw mutant Y159F [13]) was “neither of the mutations affected thiamine binding”, the Kd (PnuTSw mutant Y162F [14]) was 26 ± 3 µM and the “Dissociation constant Kd” value (PnuTSw mutant Y188A [15]) was “did not affect the binding of thiamine”. For the same compound, the Kd (PnuTSw) was 12 ± 5 µM, the ΔH (PnuTSw; ITC, 25°C, WT PnuTSw) was -6.45 ± 5.26 kcal/mol and the ΔS (PnuTSw; ITC, 25°C, WT PnuTSw) was 5 ± 71 J/mol/K.
